The target in assay [1] is BRD4-BD1. Particulars: as measured previously; cited from earlier work.
In assay [2] the target is BRD4-BD1. Nature of the assay: ITC binding to BRD4-BD1. The following applies: BRD4-BD1 Kd (ref 36) compared to that of BRD1-BD.
The target in a further assay is T1, wild type BRD1-BD (Homo sapiens, UniProt O95696).
T1 sequence (O95696 562-666 limits assumed): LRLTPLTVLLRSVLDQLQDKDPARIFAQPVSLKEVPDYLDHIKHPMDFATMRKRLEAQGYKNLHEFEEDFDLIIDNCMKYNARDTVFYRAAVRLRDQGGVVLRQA
As to the kind of experiment: ITC binding to wild type BRD1 bromodomain.

Structures are written as SMILES. Where a SMILES comes first, the peptide text is derived from it.

As for `CC(=O)NCCCC[C@H](NC(=O)CNC(=O)[C@H](C)NC(=O)[C@H](C)NC(=O)[C@H](CCCCNC(C)=O)NC(=O)[C@H](C)N)C(=O)N[C@@H](CC(C)C)C(=O)N[C@@H](CCCCNC(C)=O)C(=O)N[C@@H](C)C(N)=O` [peptide 6] (H-AK(Ac)AAGK(Ac)LK(Ac)A-NH2), the equilibrium dissociation constant (Kd) (commonly the equilibrium constant for the complex coming apart) at BRD4-BD1 [1] is 353 µM; on wild type BRD1-BD, 24.5 ± 11.7 µM. For the same compound, the “Kd for BRD4-BD1 relative to BRD1-BD (fold higher)” value at BRD4-BD1 [2] is recorded as “about 15 fold”.

These data come from publication PMC9347360 (RSC Chemical Biology, 2022).
